In this assay the target is T1, KRAS G12C and cRAF (Homo sapiens, UniProt P01116, C118S/C51S/C80L/G12C).
T1 construct: truncated version comprising amino acids 1-169
The assay can be described thus: AlphaScreen inhibition of KRAS G12C (GMPPNP-loaded) and cRAF RBD binding. The assay is classed as biochemical. As to conditions: KRAS G12C preloaded with GMPPNP, 0.5 nM KRAS G12C, 0.75 nM RBD, 19-20 h compound incubation, room temperature. From the text: The ability of compounds of Formula (I), Formula (I-1), Formula (I-2), Formula (II), Formula (II-1) and Formula (II-2), and pharmaceutically acceptable salts and/or isotopologues thereof, to inhibit activity of the GTP-bound form of KRAS G12C can be tested using methods such as the in vitro assay described in Examples 308 and 309 below. Example 308 describes determining, for various compounds, the half-maximal inhibition (IC50) of KRAS G12C loaded with GTP analogue GMPPNP from binding to cRaf, as the Ras-binding domain (RBD). […]
The AlphaScreen technology was used to determine IC50S for compound inhibition of KRAS G12C (present as the Cys-light (C51S, C80L and C118S), truncated version comprising amino acids 1-169) and cRAF interaction. […] A mixture of RBD and the AlphaScreen streptavidin donor and glutathione acceptor beads diluted in 25 mM Hepes, pH 7.4, 150 mM NaCl, 5 mM MgCl2, 0.01% TritonX-100 and 2% DMSO was then added at 10 ul/well and incubated for 60-90 minutes before the samples were read for emission at 570 nm after excitation of the donor beads at 680 nm. […] IC50S were determined using nonlinear regression fit of [inhibitor]vs. response (4 parameters).
A counter assay was also set up to rule out inhibitors of the AlphaScreen technology itself. […] Samples were read and analyzed as above.

pIC50: −log10 of the molar value.

T1 sequence (P01116 1-169 isoform P01116-2 G12C/C51S/C80L/C118S): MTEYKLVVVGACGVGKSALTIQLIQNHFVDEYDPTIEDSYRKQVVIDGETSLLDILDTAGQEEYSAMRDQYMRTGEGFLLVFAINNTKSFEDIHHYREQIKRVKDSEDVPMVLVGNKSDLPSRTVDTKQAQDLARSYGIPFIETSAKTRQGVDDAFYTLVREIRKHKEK

By pIC50 is commonly meant the negative decadic logarithm of the IC50, by convention in mol/L. Read a high pIC50 as a small IC50. `Cc1noc(/C=C/C(=O)N2CC(CN(C)c3nc(OC[C@@]45CCCN4C[C@H](F)C5)nc4c(F)c(-c5cc(O)cc6cccc(Cl)c56)ncc34)C2)n1` [Example 98, (E)-1-(3-(((7-(8-chloro-3-hydroxynaphthalen-1-yl)-8-fluoro-2-(((2R,7aS)-2-fluorotetrahydro-1H-pyrrolizin-7a(5H)-yl)methoxy)pyrido[4,3-d]pyrimidin-4-yl)(methyl)amino)methyl)azetidin-1-yl)-3-(3-methyl-1,2,4-oxadiazol-5-yl)prop-2-en-1-one] showed a pIC50 of over 8.00.

These data come from US20250340548A1, “KRAS G12C INHIBITORS” (Frontier Medicines Corporation, priority 2021, published 2025).
